Where two headings read alike, the source gives them in different places.
Assays:
[1] = system: Staphylococcus epidermidis; assay: Prebiotic activity: growth in minimal carbon support medium; type: cell-based; details: 0.5%
Description: (§1) When a concentration of 10^4 UFC/ml was reached, the micro-organisms were transferred to a minimal carbon support medium that provided the conditions required for micro-organism replication.
(§2) Each active ingredient in the compositions addressed by this invention was added to the culture medium and cultivated. Should any increased count be noted, the ingredient would be considered as having prebiotic activity.
(§3) The results of each assay were submitted to statistical analysis. The active ingredients used in the prebiotic cosmetic compositions addressed by this invention were tested on different micro-organisms.
(§4) The beneficial micro-organisms assayed were: Staphylococcus epidermidis, Staphylococcus xylosus, Staphylococcus warneri, Staphylococcus captis and Corynebacterium xerosis.

[2] = system: Staphylococcus xylosus; assay: as above; type: cell-based
Description: as §1, §2, §3, §4

[3] = system: elastin; assay: Elastin synthesis in human fibroblast cultures; type: cell-based; details: 48 hours, vs Baseline Control
Description: Human fibroblast cultures were incubated for 48 hours with the product.

[4] = system: IL-6; assay: IL-6 synthesis in human fibroblast cultures stimulated with PMA/LPS; type: cell-based; details: vs PMA/LPS Control
[5] = system: IL-8; assay: IL-8 synthesis in human fibroblast cultures stimulated with LPS; type: cell-based; details: 3.12% (w/v); vs LPS Control
[6] = system: IL-10; assay: IL-10 synthesis in human fibroblast cultures stimulated with PMA/LPS; type: cell-based; details: concentration not given; vs PMA/LPS Control
[7] = system: MMP-1; assay: MMP-1 synthesis in human fibroblast cultures stimulated with LPS; type: cell-based; details: 6.25% (p/v); vs PMA/LPS Control
[8] = system: human fibroblasts; assay: Cell proliferation in human fibroblast cultures; type: cell-based; details: for increase of proliferation: vs Control group
Excerpt: As a positive assay control, human fibroblasts were cultivated in a culture medium supplemented with 2% of fetal bovine serum.

[9] = system: GAG; details: 72 hours
[10] = system: tested skin-dwelling micro-organisms; assay: Prebiotic activity on panel of beneficial and undesirable skin micro-organisms; type: cell-based; details: FIG. 1
Description: as §1, §2, §3, §4
The undesirable micro-organisms assayed were: Staphylococcus aureus, Corynebacterium striatum, Corynebacterium jeikeium, Propioniumbacteria acnes and Candida albicans.

Row | Compound | growth of S. epidermidis [1] | growth of S. xylosus [2] | increase of elastin synthesis ([3]; 1.56% (w/v)) | increase of elastin synthesis ([3]; 3.12% (w/v)) | increase of elastin synthesis ([3]; 6.25% (w/v)) | drop of IL-6 synthesis ([4]; 3.12% (w/v)) | drop of IL-6 synthesis ([4]; 6.25% (w/v)) | reduction of IL-8 synthesis [5] | reductions of IL-10 synthesis [6] | reduction in MMP-1 synthesis [7] | increase of proliferation ([8]; 1.563% (w/v)) | increase of proliferation ([8]; 6.250% (w/v)) | Fibroblast proliferation, Increase ([8]; Table 1) | lowering of GAG levels ([9]; 3.12% (w/v)) | lowering of GAG levels ([9]; 6.25% (w/v)) | selectivity for any of the tested skin-dwelling micro-organisms [10]
1 | OC[C@H]1O[C@H](O[C@H]2O[C@H](CO)[C@@H](O)[C@H](O)[C@H]2O)[C@H](O)[C@@H](O)[C@@H]1O [trehalose] | selectively favored the growth | selectively favored the growth | 75% | 68% | 60% | 19% | 78% | 16% | up to 31% | 20% | 33% | 12.25% | of 33% | 23% | 59% | 
2 | inulin |  |  |  |  |  |  |  |  |  |  |  |  |  |  |  | did not present selectivity

Reference: patent publication US20190274948A1, “PREBIOTIC COSMETIC COMPOSITIONS AND USE OF THE PREBIOTIC COSMETIC COMPOSITIONS” (Natura Cosméticos S.A., priority 2016, published 2019)
